Key:
[1] = biological target: T1, Mtb alanine racemase (Alr) (Mycobacterium tuberculosis, UniProt P9WQA9)
[2] = biological target: T1, Mtb alanine racemase (Alr); assay: […]; Michaelis-Menten kinetics; type: biochemical

T1 sequence (P9WQA9 whole entry): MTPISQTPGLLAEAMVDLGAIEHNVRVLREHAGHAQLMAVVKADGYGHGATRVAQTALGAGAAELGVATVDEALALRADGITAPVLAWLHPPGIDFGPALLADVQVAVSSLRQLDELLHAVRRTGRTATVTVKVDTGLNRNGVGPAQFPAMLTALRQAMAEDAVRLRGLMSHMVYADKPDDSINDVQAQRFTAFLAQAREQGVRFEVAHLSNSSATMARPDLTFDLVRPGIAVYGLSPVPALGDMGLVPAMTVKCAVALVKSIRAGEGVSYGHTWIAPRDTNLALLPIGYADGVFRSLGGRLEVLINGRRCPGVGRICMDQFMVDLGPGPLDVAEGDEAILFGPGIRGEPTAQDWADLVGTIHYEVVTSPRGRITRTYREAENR

SMILES | Michaelis-Menten kinetics of purified Alr in the coupled NADH fluorescence assay [1] | IC50 [2]
C[C@@H](N)C(=O)O [D-alanine] | Varying the concentration of D-alanine yielded conventional Michaelis–Menten kinetics for Alr | 
CCOC(=O)[C@H](CCc1ccccc1)N[C@H]1CCc2ccccc2N(CC(=O)O)C1=O [benazepril] |  | 300 µM
